Key:
[1] = molecular target: T1, Cytochrome P450 11B1, mitochondrial (Homo sapiens, UniProt P15538)
T1 sequence (P15538 whole entry): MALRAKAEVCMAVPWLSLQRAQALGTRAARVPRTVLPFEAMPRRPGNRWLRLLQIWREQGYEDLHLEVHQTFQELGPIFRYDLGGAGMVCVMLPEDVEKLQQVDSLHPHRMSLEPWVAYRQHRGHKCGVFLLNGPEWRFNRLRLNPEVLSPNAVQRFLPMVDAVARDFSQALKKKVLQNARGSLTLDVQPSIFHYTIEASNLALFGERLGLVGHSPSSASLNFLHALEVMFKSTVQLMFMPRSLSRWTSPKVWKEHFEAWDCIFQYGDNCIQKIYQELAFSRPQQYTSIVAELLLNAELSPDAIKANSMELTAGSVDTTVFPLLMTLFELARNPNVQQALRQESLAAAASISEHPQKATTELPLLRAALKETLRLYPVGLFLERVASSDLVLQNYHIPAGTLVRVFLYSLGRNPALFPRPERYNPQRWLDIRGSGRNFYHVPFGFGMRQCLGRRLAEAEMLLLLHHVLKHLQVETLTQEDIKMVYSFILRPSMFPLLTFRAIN

[2] = molecular target: T2, Steroid 17-alpha-hydroxylase/17,20 lyase (Rattus norvegicus, UniProt P11715); conditions: 125 µM
T2 sequence (P11715 whole entry): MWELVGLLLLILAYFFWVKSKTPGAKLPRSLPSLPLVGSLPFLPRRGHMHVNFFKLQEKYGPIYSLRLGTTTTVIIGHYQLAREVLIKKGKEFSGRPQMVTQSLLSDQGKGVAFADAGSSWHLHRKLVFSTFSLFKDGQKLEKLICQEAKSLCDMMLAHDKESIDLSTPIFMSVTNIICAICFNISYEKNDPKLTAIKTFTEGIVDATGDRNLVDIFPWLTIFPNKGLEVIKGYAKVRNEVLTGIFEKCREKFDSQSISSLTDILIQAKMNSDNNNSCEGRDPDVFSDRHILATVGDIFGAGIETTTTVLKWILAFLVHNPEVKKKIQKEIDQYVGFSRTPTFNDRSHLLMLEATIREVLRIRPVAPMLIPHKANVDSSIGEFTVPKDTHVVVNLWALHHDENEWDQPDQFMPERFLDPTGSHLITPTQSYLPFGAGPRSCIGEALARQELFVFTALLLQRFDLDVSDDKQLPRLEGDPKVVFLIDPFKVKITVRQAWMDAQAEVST

[3] = molecular target: T3, Cytochrome P450 11B2, mitochondrial (Rattus norvegicus, UniProt P30099)
T3 sequence (P30099 whole entry): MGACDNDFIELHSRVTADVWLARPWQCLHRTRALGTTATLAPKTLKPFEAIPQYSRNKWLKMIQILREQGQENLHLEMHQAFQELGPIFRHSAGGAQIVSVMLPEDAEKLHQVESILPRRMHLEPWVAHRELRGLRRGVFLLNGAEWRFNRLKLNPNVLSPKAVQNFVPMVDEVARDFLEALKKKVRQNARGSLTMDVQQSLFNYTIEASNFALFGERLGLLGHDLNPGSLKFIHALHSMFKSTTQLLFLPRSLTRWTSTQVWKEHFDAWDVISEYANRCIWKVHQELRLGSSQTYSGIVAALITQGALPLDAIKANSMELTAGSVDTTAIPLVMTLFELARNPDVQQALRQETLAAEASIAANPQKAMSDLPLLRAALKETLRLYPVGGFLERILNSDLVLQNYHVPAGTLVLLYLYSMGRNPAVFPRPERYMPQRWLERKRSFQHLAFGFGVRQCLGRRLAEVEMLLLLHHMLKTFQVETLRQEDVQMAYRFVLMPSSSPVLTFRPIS

[4] = molecular target: T4, Cytochrome P450 17 (Steroid 17-alpha-hydroxylase/17,20 lyase) (Rattus norvegicus, UniProt P11715); assay: in vitro
T4 sequence (P11715 whole entry): T2 sequence (P11715 whole entry)

[5] = molecular target: T5, Cytochrome P450 18 hydroxylase (Cytochrome P450 11B2, mitochondrial) (Homo sapiens, UniProt P19099); assay: in vitro; conditions: cattle
T5 sequence (P19099 whole entry): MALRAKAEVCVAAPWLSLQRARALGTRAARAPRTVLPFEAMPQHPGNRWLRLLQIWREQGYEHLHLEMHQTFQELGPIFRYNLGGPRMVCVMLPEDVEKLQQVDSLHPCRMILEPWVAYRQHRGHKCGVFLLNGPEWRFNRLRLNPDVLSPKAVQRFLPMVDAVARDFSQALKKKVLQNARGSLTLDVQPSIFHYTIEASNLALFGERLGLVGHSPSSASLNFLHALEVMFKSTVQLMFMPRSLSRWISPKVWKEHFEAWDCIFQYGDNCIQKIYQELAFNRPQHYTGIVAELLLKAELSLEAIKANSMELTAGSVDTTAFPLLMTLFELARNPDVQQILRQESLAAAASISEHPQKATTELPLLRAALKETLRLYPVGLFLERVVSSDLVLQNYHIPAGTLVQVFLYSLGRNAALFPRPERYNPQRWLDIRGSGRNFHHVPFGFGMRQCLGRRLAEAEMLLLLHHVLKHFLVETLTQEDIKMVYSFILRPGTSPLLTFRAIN

[6] = species on record: Rattus norvegicus; format: functional
[7] = species on record: Rattus norvegicus; format: functional; remark: listed apart in the source
[8] = species on record: Rattus norvegicus; format: functional; remark: listed apart in the source
[9] = species on record: Rattus norvegicus; format: functional; remark: listed apart in the source
[10] = molecular target: T6, Aromatase (Rattus norvegicus, UniProt P22443)
T6 sequence (P22443 whole entry): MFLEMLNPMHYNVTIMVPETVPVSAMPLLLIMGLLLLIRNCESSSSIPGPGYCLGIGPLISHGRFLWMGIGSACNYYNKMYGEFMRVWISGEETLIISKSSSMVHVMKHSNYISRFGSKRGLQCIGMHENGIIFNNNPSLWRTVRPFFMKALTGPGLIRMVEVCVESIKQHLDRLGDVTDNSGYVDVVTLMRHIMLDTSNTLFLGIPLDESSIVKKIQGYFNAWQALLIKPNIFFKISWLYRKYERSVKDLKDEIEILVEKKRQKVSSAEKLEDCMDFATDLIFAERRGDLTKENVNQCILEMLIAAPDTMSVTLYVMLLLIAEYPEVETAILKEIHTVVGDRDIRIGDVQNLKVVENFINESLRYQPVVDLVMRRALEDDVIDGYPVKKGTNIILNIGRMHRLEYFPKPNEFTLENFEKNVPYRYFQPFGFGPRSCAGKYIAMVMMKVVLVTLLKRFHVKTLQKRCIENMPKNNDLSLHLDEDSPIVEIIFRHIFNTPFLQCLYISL

[11] = species on record: Rattus norvegicus; format: functional; remark: listed apart in the source
[12] = species on record: Rattus norvegicus; format: functional; remark: listed apart in the source
[13] = species on record: Rattus norvegicus; format: functional; remark: listed apart in the source
[14] = species on record: Rattus norvegicus; format: functional; remark: listed apart in the source
[15] = species on record: Rattus norvegicus; format: functional; remark: listed apart in the source
[16] = species on record: Rattus norvegicus; format: functional; remark: listed apart in the source
[17] = species on record: Rattus norvegicus; format: functional; remark: listed apart in the source
[18] = species on record: Rattus norvegicus; format: functional; remark: listed apart in the source
[19] = species on record: Rattus norvegicus; format: functional; remark: listed apart in the source
[20] = molecular target: T6, Aromatase; conditions: in vivo, 30 mg/kg
[21] = species on record: Rattus norvegicus; format: functional; remark: listed apart in the source
[22] = molecular target: T3, Cytochrome P450 11B2, mitochondrial; remark: listed apart in the source
[23] = molecular target: T3, Cytochrome P450 11B2, mitochondrial; remark: listed apart in the source
[24] = species on record: Rattus norvegicus; format: functional; remark: listed apart in the source
[25] = species on record: Rattus norvegicus; format: functional; remark: listed apart in the source
[26] = species on record: Rattus norvegicus; format: functional; remark: listed apart in the source
[27] = molecular target: T6, Aromatase; conditions: in vivo, 30 mg/kg; remark: listed apart in the source
[28] = species on record: Rattus norvegicus; format: functional; remark: listed apart in the source
[29] = molecular target: T6, Aromatase; conditions: in vivo, 30 mg/kg; remark: listed apart in the source
[30] = molecular target: T6, Aromatase; conditions: in vivo, 30 mg/kg; remark: listed apart in the source
[31] = molecular target: T6, Aromatase; conditions: in vivo, 30 mg/kg; remark: listed apart in the source

SMILES: COc1ccc2c(c1)C1C(CC2)C1c1ccncc1 (stereo in doubt; (-)-4)
- IC50 [1]: 30 µM
- Inhibition [2]: 45%
- IC50 [3]: 10 µM

SMILES: COc1cccc2c1CCC1C(c3ccncc3)C21 (stereo not given)
- inhibition at 125 µM [4]: 51%
- inhibition at 1 µM [5]: 38%

SMILES: Oc1ccc2c(c1)CCC1C(c3ccncc3)C21 (stereo not given)
- inhibition at 125 µM [4]: 41%
- inhibition at 1 µM [5]: 36%

SMILES: COc1ccc2c(c1)C1C(CC2)C1c1ccncc1 (stereo in doubt; 4)
- No. of tumors [6]: 33
- IC50 [1]: 75 µM
- Tumors [7]: 15%
- No. of tumors [8]: 10
- Change of tumor area [9]: 29%
- IC50 [10]: 0.265 µM
- Inhibition [2]: 47%
- No. of tumors [11]: 25
- Tumors [12]: 43%
- Change of tumor area [13]: 55%
- Tumors [14]: 20%
- Tumors [15]: 37%
- Tumors [16]: 18%
- IC50 [3]: 15 µM
- Tumors [17]: 0%
- No. of tumors [18]: 5
- Tumors [19]: 15%
- inhibition at 1 µM [5]: 45%
- Effect [20]: 132
- Tumors [21]: 52%

SMILES: COc1ccc2c(c1)C1C(CC2)C1(C)c1ccncc1 (stereo not given)
- inhibition at 125 µM [4]: 68%
- Effect [20]: 139

SMILES: COc1ccc2c(c1)C1C(CC2)C1c1ccncc1 (single isomer, unassigned; (+))
- inhibition at 125 µM [4]: 54%
- IC50 [1]: 95 µM
- IC50 [3]: 6 µM

SMILES: CCC1(c2ccc(N)cc2)CCC(=O)NC1=O (stereo not given) [AMINOGLUTETHIMIDE]
- IC50 [22]: 50 µM
- IC50 [23]: 80 µM

SMILES: COc1cc2c(cc1Br)CCC1C(c3ccncc3)C21 (stereo in doubt; 7)
- Effect [20]: 176

SMILES: c1ccc2c(c1)CCC1C(c3ccncc3)C21 (stereo not given)
- inhibition at 125 µM [4]: 36%
- No. of tumors [24]: 1
- Tumors [25]: 9%
- Change of tumor area [9]: 36%
- IC50 [23]: 3 µM
- Tumors [26]: 28%
- Mean [27]: 124
- No. of tumors [28]: 32
- Tumors [19]: 16%
- inhibition at 1 µM [5]: 55%
- Tumors [21]: 47%

SMILES: Oc1ccc2c(c1)C1C(CC2)C1c1ccncc1 (stereo not given)
- IC50 [3]: 7 µM

SMILES: C[C@]12CCC(=O)C=C1CC[C@@H]1[C@@H]2CC[C@]2(C)C(=O)CC[C@@H]12 [ANDROSTENEDIONE]
- Mean [29]: 202
- Mean [30]: 138
- Mean [31]: 187
